# From patent publication US8389764B2, “Urea and sulfamide derivatives as inhibitors of TAFIa” (Sanofi, priority 2006, dated 2013)
# Numbered stars: 1 amine (or outer) side, 2 acyl side, 3 side chain; on linkers, the order of the positions; unused ones are H or OH. Square brackets hold non-standard residues; d marks the D form. Peptide text beside a SMILES is read from it. * marks the point of attachment. aIle = CC[C@@H](C)[C@H](N)C(=O)O; dCha = N[C@H](CC1CCCCC1)C(=O)O; Ac5c = NC1(C(=O)O)CCCC1; Cbz = O=C(OCc1ccccc1)*; Aib = CC(C)(N)C(=O)O; CO = O=C([*:1])[*:2]
# Target: T1, TAFIa (Homo sapiens, UniProt Q96IY4)
# T1 construct: purchased American Diagnostica 874TAFIA
# T1 sequence (Q96IY4 115-423): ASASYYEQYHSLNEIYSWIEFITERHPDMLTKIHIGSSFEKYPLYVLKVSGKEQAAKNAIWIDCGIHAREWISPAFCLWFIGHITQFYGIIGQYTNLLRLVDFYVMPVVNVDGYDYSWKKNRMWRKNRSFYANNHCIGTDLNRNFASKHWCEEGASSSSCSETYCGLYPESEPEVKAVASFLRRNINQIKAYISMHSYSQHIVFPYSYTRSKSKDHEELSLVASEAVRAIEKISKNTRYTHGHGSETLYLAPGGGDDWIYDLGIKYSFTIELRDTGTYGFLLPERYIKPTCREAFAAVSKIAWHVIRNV
# Assay: TAFIa inhibition, Actichrome plasma TAFI activity kit (American Diagnostica)
# Format: biochemical
# Conditions: 15 min preincubation at room temperature, read at 420 nm, duplicate determination of serial dilutions
# Description: The enzymic reaction was started by adding 10 μl of TAFIa developer (prediluted 1:2 with assay buffer).
# The IC50 values were calculated from the averaged values (duplicate determination) of serial dilutions of the substance with the aid of the Softmax Pro software (version 4.8; Molecular Devices).
row,SMILES,IC50
1,CC(C)CCNC(=O)[C@@H](CCCCNC(=O)OCc1ccccc1)NC(=O)N[C@@H](CCCCN)C(=O)O [Example 2],1420 nM
2,CCNC(=O)[C@@H](NC(=O)[C@@H](CC1CCCCC1)NC(=O)N[C@@H](CCCCN)C(=O)O)C(C)C [Example 10] ({Lys-CO}-[dCha]-Val-NHEt),979 nM
3,"NCCCC[C@H](NC(=O)N[C@H](CC1CCCCC1)C(=O)NCc1ccc(F)cc1F)C(=O)O [Example 11, (S)-6-Amino-2-{3-[(R)-2-cyclohexyl-1-(2,4-difluoro-benzylcarbamoyl)-ethyl]-ureido}-hexanoic acid]",644 nM
4,CC(CNC(=O)[C@@H](CC1CCCCC1)NC(=O)N[C@@H](CCCCN)C(=O)O)c1ccccc1 (stereo partly drawn) [Example 12],1260 nM
5,Cc1ccccc1CCNC(=O)[C@@H](CC1CCCCC1)NC(=O)N[C@@H](CCCCN)C(=O)O [Example 13],1260 nM
6,CC1CCCCC1NC(=O)[C@@H](CC1CCCCC1)NC(=O)N[C@@H](CCCCN)C(=O)O (stereo partly drawn) [Example 19],353 nM
7,COc1ccc(CNC(=O)[C@@H](CC2CCCCC2)NC(=O)N[C@@H](CCCCN)C(=O)O)cc1 [Example 21],904 nM
8,COC(=O)C(C)(C)NC(=O)[C@@H](CCCCNC(=O)OCc1ccccc1)NC(=O)N[C@@H](CCCCN)C(=O)O [Example 25] ({Lys-CO}-[dK](Cbz)-[Aib]-OMe),463 nM
9,Cc1cccc(CNC(=O)[C@@H](CC2CCCCC2)NC(=O)N[C@@H](CCCCN)C(=O)O)c1C [Example 26],487 nM
10,NCCCC[C@H](NC(=O)N[C@H](CC1CCCCC1)C(=O)NCC(c1ccccc1)c1ccccc1)C(=O)O [Example 28],118 nM
11,C[C@H]1CC[C@H](NC(=O)[C@@H](CC2CCCCC2)NC(=O)N[C@@H](CCCCN)C(=O)O)CC1 [Example 31],76 nM
12,CCOC(=O)[C@H](CC(C)C)NC(=O)[C@@H](CCCCNC(=O)OCc1ccccc1)NC(=O)N[C@@H](CCCCN)C(=O)O [Example 32] ({Lys-CO}-[dK](Cbz)-Leu-OEt),753 nM
13,CCOC(=O)[C@@H]1CCCC[C@@H]1NC(=O)[C@@H](CCCCNC(=O)OCc1ccccc1)NC(=O)N[C@@H](CCCCN)C(=O)O [Example 33],190 nM
14,CC(CNC(=O)[C@@H](CCCCNC(=O)OCc1ccccc1)NC(=O)N[C@@H](CCCCN)C(=O)O)c1ccccc1 (stereo partly drawn) [Example 34],1080 nM
15,CC[C@H](C)[C@H](NC(=O)[C@@H](CCCCNC(=O)OCc1ccccc1)NC(=O)N[C@@H](CCCCN)C(=O)O)C(=O)OC [Example 37],537 nM
16,CCOC(=O)[C@@H](NC(=O)[C@@H](CCCCNC(=O)OCc1ccccc1)NC(=O)N[C@@H](CCCCN)C(=O)O)C(C)C [Example 38] ({Lys-CO}-[dK](Cbz)-Val-OEt),297 nM
17,COC(=O)C1(NC(=O)[C@@H](CCCCNC(=O)OCc2ccccc2)NC(=O)N[C@@H](CCCCN)C(=O)O)CCCC1 [Example 39] ({Lys-CO}-[dK](Cbz)-[Ac5c]-OMe),1140 nM
18,CC1CCCC(NC(=O)[C@@H](CC2CCCCC2)NC(=O)N[C@@H](CCCCN)C(=O)O)C1 (stereo partly drawn) [Example 41],90 nM
19,CC1CCCCC1NC(=O)[C@@H](CCCCNC(=O)OCc1ccccc1)NC(=O)N[C@@H](CCCCN)C(=O)O (stereo partly drawn) [Example 42],839 nM

row,SMILES,IC50
1,NCCCC[C@H](NC(=O)N[C@H](CCCCNC(=O)OCc1ccccc1)C(=O)NC1C[C@@H]2CC[C@H]1C2)C(=O)O (stereo partly drawn) [Example 43],46 nM
2,C[C@H](NC(=O)[C@@H](CCCCNC(=O)OCc1ccccc1)NC(=O)N[C@@H](CCCCN)C(=O)O)c1ccc(Cl)cc1 [Example 44],144 nM
3,CCOC(=O)[C@@H](NC(=O)[C@@H](CC1CCCCC1)NC(=O)N[C@@H](CCCCN)C(=O)O)C(C)C [Example 49] ({Lys-CO}-[dCha]-Val-OEt),106 nM
4,CC[C@@H](C)[C@H](NC(=O)[C@@H](CC1CCCCC1)NC(=O)N[C@@H](CCCCN)C(=O)O)C(=O)OC [Example 57] ({Lys-CO}-[dCha]-[aIle]-OMe),544 nM
5,NCCCC[C@H](NC(=O)N[C@H](CC1CCCCC1)C(=O)N[C@@H]1CC1c1ccccc1)C(=O)O (stereo partly drawn) [Example 64],757 nM
6,CCC(C)CNC(=O)[C@@H](CC1CCCCC1)NC(=O)N[C@@H](CCCCN)C(=O)O (stereo partly drawn) [Example 69],1050 nM
7,CC1CCCC(NC(=O)[C@@H](CC2CCCCC2)NC(=O)N[C@@H](CCCCN)C(=O)O)C1C (stereo partly drawn) [Example 72],167 nM
8,NCCCC[C@H](NC(=O)N[C@H](CC1CCCCC1)C(=O)NC1CCc2ccccc2C1)C(=O)O (stereo partly drawn) [Example 73],47 nM
9,NCCCC[C@H](NC(=O)N[C@H](CC1CCCCC1)C(=O)NC1C2CC3CC(C2)CC1C3)C(=O)O (stereo partly drawn) [Example 74],19 nM
10,CC(C)CC(C)NC(=O)[C@@H](CC1CCCCC1)NC(=O)N[C@@H](CCCCN)C(=O)O (stereo partly drawn) [Example 75],653 nM
11,CC(C)CNC(=O)[C@@H](CC1CCCCC1)NC(=O)N[C@@H](CCCCN)C(=O)O [Example 76],845 nM
12,CC1(C)C2CCC1(C)[C@@H](NC(=O)[C@@H](CC1CCCCC1)NC(=O)N[C@@H](CCCCN)C(=O)O)C2 (stereo partly drawn) [Example 77],3 nM
13,NCCCC[C@H](NC(=O)N[C@H](CC1CCCCC1)C(=O)NCC12CC3CC(CC(C3)C1)C2)C(=O)O [Example 78],305 nM
14,NCCCC[C@H](NC(=O)N[C@H](CC1CCCCC1)C(=O)NC12CC3CC(CC(C3)C1)C2)C(=O)O [Example 79],31 nM
15,C[C@@H]1C(CNC(=O)[C@@H](CC2CCCCC2)NC(=O)N[C@@H](CCCCN)C(=O)O)CC2C[C@@H]1C2(C)C (stereo partly drawn) [Example 84],654 nM
16,NCCCC[C@H](NC(=O)N[C@H](CC1CCCCC1)C(=O)N[C@H]1CCc2ccccc2C1)C(=O)O [Example 85],39 nM
17,CC(C)(C)C1CCC(NC(=O)[C@@H](CC2CCCCC2)NC(=O)N[C@@H](CCCCN)C(=O)O)CC1 (stereo partly drawn) [Example 86],60 nM
18,Nc1ccc(CC(NC(=O)N[C@H](CC2CCCCC2)C(=O)NC2CC3CCC2C3)C(=O)O)cn1 (stereo partly drawn) [Example 88],393 nM
19,CC1(C)[C@@H]2CC[C@@]1(C)[C@@H](NC(=O)[C@@H](CC1CCCCC1)NC(=O)N[C@@H](CCCNC(=N)N)C(=O)O)C2 [Example 91],4 nM

row,SMILES,IC50
1,NCCCC[C@H](NC(=O)N[C@H](CC1CCCCC1)C(=O)NC1CCC2CCCCC2C1)C(=O)O (stereo partly drawn) [Example 92],160 nM
2,CC1(C)[C@@H]2CC[C@@]1(C)[C@@H](NC(=O)[C@@H](CC1CCCCC1)NC(=O)N[C@@H](Cc1ccc(N)nc1)C(=O)O)C2 [Example 93],1500 nM
3,CC1(C)[C@@H]2CC[C@@]1(C)[C@@H](NC(=O)[C@@H](CC1CCCCC1)NC(=O)N[C@H](Cc1ccc(N)nc1)C(=O)O)C2 [Example 94],109000 nM
4,CC1(C)[C@@H]2CC[C@@]1(C)C(NC(=O)CC(CC1CCCCC1)NC(=O)N[C@@H](CCCN)C(=O)O)C2 (stereo partly drawn) [Example 95],41000 nM
5,CC1(C)[C@@H]2CC[C@@]1(C)C(NC(=O)[C@@H](Cc1ccccc1)NC(=O)N[C@@H](CCCCN)C(=O)O)C2 (stereo partly drawn) [Example 96],15 nM
6,CC(C)[C@@H](NC(=O)N[C@@H](CCCCN)C(=O)O)C(=O)N[C@H]1C[C@H]2CC[C@]1(C)C2(C)C [Example 97],462 nM
7,CC1(C)[C@@H]2CC[C@@]1(C)C(NC(=O)[C@H](NC(=O)N[C@@H](CCCCN)C(=O)O)C1CCCCC1)C2 (stereo partly drawn) [Example 98],1040 nM
8,CC(C)C[C@@H](NC(=O)N[C@@H](CCCCN)C(=O)O)C(=O)NC1C[C@H]2CC[C@]1(C)C2(C)C (stereo partly drawn) [Example 99],57 nM
9,CCC[C@@H](NC(=O)N[C@@H](CCCCN)C(=O)O)C(=O)N[C@H]1C[C@H]2CC[C@]1(C)C2(C)C [Example 103],15 nM
10,CC1(C)C2CC[C@@]1(C)[C@@H](NC(=O)[C@@H](CC1CCCCC1)NC(=O)N[C@@H](CCONC(=N)N)C(=O)O)C2 [Example 107],1100 nM
11,CC1(C)[C@@H]2CC[C@@]1(C)[C@@H](NC(=O)[C@@H](CC1CC1)NC(=O)N[C@@H](CCCCN)C(=O)O)C2 [Example 108],7 nM
12,CC1(C)[C@@H]2CC[C@@]1(C)[C@@H](NC(=O)[C@@H](CC1CCC1)NC(=O)N[C@@H](CCCCN)C(=O)O)C2 [Example 109],9 nM
13,CC1(C)[C@@H]2CC[C@@]1(C)[C@@H](NC(=O)[C@@H](CC1CCCCC1)NC(=O)NC(Cc1ccc(N)nc1)C(=O)O)C2 (stereo partly drawn) [Example 110],6 nM
14,CC1(C)[C@@H]2CC[C@@]1(C)[C@@H](NC(=O)C(CC1CCCC1)NC(=O)N[C@@H](CCCCN)C(=O)O)C2 (stereo partly drawn) [Example 111],4 nM
15,CC(C)[C@H](NC(=O)[C@@H](CCCCNC(=O)OCc1ccccc1)NC(=O)N[C@@H](CCCCN)C(=O)O)C(=O)NCCCc1ccccc1 [Example 113],747 nM
16,CC(C)[C@H](NC(=O)[C@@H](CCCCNC(=O)OCc1ccccc1)NC(=O)N[C@@H](CCCCN)C(=O)O)C(=O)N[C@@H]1C[C@H]2CC[C@@H]1C2 [Example 114],519 nM
17,CC(C)[C@H](NC(=O)[C@@H](CCCCNC(=O)OCc1ccccc1)NC(=O)N[C@@H](CCCCN)C(=O)O)C(=O)NC1C[C@@H]2CC[C@H]1C2 (stereo partly drawn) [Example 115],239 nM
18,CCOC(=O)[C@@H](NC(=O)[C@@H](NC(=O)[C@@H](CCCCNC(=O)OCc1ccccc1)NC(=O)N[C@@H](CCCCN)C(=O)O)C(C)C)C(C)C [Example 118] ({Lys-CO}-[dK](Cbz)-Val-Val-OEt),267 nM
19,CC(C)[C@H](NC(=O)[C@@H](CCCCNC(=O)OCc1ccccc1)NC(=O)N[C@@H](CCCCN)C(=O)O)C(=O)N[C@@H](C)c1ccc(Cl)cc1 [Example 119],1300 nM
